Test results taken from ChEMBL document CHEMBL5120829, “Discovery and structural optimization of potent epidermal growth factor receptor (EGFR) inhibitors against L858R/T790M/C797S resistance mutation for lung cancer treatment” (Eur J Med Chem, 2022).
The source made the active and inactive calls. No cut-off for these calls is given here.

Assays:
[1] = MRT (0 to infinity) in overnight fasted Sprague-Dawley rat at 20 mg/kg, iv by HPLC analysis; type: ADME, organism-based; conditions: in vivo
[2] = biological target: Epidermal growth factor receptor (Homo sapiens, UniProt P00533, C797S/L858R/T790M); experiment: Inhibition of EGFR L858R/T790M/C797S mutant (unknown origin)
Chain of Epidermal growth factor receptor (P00533 25-1210 T790M/C797S/L858R limits assumed): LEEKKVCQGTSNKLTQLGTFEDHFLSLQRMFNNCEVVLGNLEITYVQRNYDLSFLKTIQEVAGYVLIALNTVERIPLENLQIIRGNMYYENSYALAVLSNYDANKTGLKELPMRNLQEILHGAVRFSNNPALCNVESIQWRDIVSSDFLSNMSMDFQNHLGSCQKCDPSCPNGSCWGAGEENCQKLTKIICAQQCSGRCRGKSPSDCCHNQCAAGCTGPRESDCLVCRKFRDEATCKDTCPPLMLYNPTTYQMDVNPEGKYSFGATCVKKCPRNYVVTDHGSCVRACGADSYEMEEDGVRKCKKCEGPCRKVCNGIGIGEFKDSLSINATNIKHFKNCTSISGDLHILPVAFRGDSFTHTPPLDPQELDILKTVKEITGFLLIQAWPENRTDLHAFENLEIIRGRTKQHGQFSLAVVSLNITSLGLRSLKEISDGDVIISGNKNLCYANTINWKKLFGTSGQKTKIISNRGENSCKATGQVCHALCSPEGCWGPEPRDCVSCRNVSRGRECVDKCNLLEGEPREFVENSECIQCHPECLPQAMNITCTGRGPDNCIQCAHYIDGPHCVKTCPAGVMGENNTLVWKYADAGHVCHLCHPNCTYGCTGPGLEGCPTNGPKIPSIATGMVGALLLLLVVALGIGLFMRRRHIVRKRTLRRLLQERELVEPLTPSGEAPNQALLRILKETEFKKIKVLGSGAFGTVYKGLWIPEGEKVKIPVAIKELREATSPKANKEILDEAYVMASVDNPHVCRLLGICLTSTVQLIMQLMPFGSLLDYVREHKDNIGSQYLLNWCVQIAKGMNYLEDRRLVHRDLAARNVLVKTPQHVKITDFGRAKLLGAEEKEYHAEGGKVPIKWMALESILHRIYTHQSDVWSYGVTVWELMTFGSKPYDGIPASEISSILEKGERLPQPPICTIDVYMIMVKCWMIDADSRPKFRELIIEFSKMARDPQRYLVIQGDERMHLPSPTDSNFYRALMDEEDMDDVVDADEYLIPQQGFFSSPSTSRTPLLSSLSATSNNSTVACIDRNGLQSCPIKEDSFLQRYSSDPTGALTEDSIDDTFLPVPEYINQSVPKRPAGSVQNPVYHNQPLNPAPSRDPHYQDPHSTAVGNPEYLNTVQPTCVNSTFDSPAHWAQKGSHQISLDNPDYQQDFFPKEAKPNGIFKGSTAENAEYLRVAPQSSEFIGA

[3] = system: A-431; experiment: Antiproliferative activity against human A-431 cells assessed as inhibition of cell growth incubated for 72 hrs by CCK-8 assay; type: functional, cell-based; conditions: A-431, 72 h
[4] = biological target: Serine/threonine-protein kinase AKT (Homo sapiens) (UniProt P31751+Q9Y243+P31749); experiment: Inhibition of AKT phosphorylation in human PC-9 cells expressing EGFR L858R/T790M/C797S mutant at 0.01 to 1 uM by Western blot analysis; type: cell-based; conditions: dose 0.01-1 µM
Chain of Serine/threonine-protein kinase AKT (Homo sapiens) (P31749 whole entry, looked up): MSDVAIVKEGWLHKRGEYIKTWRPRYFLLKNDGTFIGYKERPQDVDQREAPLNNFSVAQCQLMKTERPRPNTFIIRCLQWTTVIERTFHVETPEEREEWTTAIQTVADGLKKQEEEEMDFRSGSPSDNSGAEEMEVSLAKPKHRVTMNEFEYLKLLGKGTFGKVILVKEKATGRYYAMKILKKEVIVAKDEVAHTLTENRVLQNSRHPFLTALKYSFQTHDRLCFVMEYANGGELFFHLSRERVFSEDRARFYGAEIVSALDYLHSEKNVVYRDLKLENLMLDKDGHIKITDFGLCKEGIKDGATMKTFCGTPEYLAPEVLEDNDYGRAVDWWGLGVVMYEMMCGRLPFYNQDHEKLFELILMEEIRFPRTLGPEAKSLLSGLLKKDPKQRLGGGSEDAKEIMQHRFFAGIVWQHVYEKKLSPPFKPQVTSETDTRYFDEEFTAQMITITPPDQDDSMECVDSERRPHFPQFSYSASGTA
Chain of Serine/threonine-protein kinase AKT (Homo sapiens) (P31751 whole entry, looked up): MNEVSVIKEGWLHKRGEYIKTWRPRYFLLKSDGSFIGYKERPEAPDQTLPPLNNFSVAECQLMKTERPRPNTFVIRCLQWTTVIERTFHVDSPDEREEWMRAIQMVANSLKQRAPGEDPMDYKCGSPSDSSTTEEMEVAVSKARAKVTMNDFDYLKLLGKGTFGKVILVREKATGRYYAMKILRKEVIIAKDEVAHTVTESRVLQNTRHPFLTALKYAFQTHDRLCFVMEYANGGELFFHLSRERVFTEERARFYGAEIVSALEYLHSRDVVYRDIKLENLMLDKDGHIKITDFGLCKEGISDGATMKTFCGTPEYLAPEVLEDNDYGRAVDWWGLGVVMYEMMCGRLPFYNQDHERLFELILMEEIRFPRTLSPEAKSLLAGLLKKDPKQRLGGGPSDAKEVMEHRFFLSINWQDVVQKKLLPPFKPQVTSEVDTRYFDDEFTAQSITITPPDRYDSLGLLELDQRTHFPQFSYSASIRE
Chain of Serine/threonine-protein kinase AKT (Homo sapiens) (Q9Y243 whole entry, looked up): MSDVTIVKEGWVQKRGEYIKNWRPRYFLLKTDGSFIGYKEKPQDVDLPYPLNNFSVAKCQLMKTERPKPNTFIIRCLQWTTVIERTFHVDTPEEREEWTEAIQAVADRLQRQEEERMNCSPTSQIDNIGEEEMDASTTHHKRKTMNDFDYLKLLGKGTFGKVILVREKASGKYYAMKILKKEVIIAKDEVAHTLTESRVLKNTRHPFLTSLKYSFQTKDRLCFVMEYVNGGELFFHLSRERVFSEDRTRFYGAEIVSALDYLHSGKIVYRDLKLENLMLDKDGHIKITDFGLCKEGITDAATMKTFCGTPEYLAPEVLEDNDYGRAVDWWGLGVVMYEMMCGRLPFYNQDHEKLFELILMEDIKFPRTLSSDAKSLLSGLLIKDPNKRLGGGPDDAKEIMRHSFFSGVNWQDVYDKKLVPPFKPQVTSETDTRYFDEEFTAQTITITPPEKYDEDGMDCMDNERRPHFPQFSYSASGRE

[5] = system: PC-9; experiment: Induction of apoptosis in human PC-9 cells expressing EGFR L858R/T790M/C797S mutant assessed as dead cells at 0.01 uM incubated for 24 hrs by annexin-V/propidium iodide staining-based flow cytometry analysis (reference value: 0.43 %); type: functional
[6] = system: PC-9; experiment: Induction of apoptosis in human PC-9 cells expressing EGFR L858R/T790M/C797S mutant assessed as early apoptotic cells at 0.01 uM incubated for 24 hrs by annexin-V/propidium iodide staining-based flow cytometry analysis (reference value: 0.3 %); type: functional
[7] = Oral bioavailability in overnight fasted Sprague-Dawley rat at 20 mg/kg by HPLC analysis; type: ADME, organism-based; conditions: in vivo
[8] = Volume of distribution at steady state in overnight fasted Sprague-Dawley rat at 20 mg/kg, po by HPLC analysis; type: ADME, organism-based; conditions: in vivo
[9] = Half life in overnight fasted Sprague-Dawley rat at 20 mg/kg, po by HPLC analysis; type: ADME, organism-based; conditions: in vivo
[10] = Half life in overnight fasted Sprague-Dawley rat at 20 mg/kg, iv by HPLC analysis; type: ADME, organism-based; conditions: in vivo
[11] = Tmax in overnight fasted Sprague-Dawley rat at 20 mg/kg, iv by HPLC analysis; type: ADME, organism-based; conditions: in vivo
[12] = system: Epidermal growth factor receptor (Homo sapiens), P00533 [L858R,T790M,C797S]; experiment: Inhibition of EGFR L858R/T790M/C797S mutant (unknown origin) at 1 uM relative to control
Chain of Epidermal growth factor receptor (Homo sapiens), P00533 [L858R,T790M,C797S] (P00533 whole entry T790M/C797S/L858R): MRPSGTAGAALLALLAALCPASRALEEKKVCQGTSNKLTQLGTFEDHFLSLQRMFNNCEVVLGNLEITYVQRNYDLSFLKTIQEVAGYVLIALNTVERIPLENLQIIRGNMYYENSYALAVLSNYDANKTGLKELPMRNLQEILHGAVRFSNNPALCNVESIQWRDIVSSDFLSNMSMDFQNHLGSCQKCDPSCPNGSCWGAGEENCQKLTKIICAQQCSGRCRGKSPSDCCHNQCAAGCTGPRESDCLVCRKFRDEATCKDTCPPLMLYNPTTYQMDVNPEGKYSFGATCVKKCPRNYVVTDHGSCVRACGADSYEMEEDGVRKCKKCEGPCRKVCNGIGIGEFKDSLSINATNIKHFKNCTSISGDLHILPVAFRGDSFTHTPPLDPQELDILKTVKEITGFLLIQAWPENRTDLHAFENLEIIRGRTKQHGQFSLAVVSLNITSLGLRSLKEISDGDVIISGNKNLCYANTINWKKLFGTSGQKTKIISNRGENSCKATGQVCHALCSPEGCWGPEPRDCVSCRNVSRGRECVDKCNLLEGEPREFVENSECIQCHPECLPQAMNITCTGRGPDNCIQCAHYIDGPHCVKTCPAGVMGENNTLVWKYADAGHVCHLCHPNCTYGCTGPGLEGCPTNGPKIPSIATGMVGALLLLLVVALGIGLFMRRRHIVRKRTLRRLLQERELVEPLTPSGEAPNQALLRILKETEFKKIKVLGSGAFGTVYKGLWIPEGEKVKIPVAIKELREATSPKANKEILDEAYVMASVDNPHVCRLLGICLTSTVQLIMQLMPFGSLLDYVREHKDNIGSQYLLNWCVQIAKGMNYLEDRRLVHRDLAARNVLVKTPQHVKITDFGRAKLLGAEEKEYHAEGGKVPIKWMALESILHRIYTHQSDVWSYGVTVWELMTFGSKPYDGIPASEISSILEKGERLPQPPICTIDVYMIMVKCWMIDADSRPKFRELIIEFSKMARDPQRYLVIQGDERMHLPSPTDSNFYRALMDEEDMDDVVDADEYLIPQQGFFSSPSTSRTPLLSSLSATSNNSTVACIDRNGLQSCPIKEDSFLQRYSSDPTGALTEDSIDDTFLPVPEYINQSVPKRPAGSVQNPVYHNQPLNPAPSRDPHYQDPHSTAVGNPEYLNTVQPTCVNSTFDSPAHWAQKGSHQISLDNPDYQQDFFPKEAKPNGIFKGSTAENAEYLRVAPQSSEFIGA

[13] = system: Epidermal growth factor receptor (Homo sapiens), P00533 [L858R,T790M,C797S]; experiment: Inhibition of EGFR L858R/T790M/C797S mutant (unknown origin) at 0.5 uM relative to control
[14] = system: PC-9; experiment: Induction of apoptosis in human PC-9 cells expressing EGFR L858R/T790M/C797S mutant assessed as early apoptotic cells at 0.05 uM incubated for 24 hrs by annexin-V/propidium iodide staining-based flow cytometry analysis (reference value: 0.3 %); type: functional
[15] = system: A549; experiment: Antiproliferative activity against human A549 cells assessed as inhibition of cell growth incubated for 72 hrs by CCK-8 assay; type: functional, cell-based; conditions: A549, 72 h
[16] = system: PC-9; experiment: Induction of apoptosis in human PC-9 cells expressing EGFR L858R/T790M/C797S mutant assessed as dead cells at 0.05 uM incubated for 24 hrs by annexin-V/propidium iodide staining-based flow cytometry analysis (reference value: 0.43 %); type: functional
[17] = Cmax in overnight fasted Sprague-Dawley rat at 20 mg/kg, po by HPLC analysis; type: ADME, organism-based; set-up: dose 20 mg/kg, route po; conditions: in vivo
[18] = system: PC-9; experiment: Induction of apoptosis in human PC-9 cells expressing EGFR L858R/T790M/C797S mutant assessed as early apoptotic cells at 0.25 uM incubated for 24 hrs by annexin-V/propidium iodide staining-based flow cytometry analysis (reference value: 0.3 %); type: functional
[19] = system: PC-9; experiment: Induction of apoptosis in human PC-9 cells expressing EGFR L858R/T790M/C797S mutant assessed as late apoptotic cells at 0.01 uM incubated for 24 hrs by annexin-V/propidium iodide staining-based flow cytometry analysis (reference value: 0.14 %); type: functional
[20] = biological target: Signal transducer and activator of transcription 3 (Homo sapiens) (UniProt P40763); experiment: Inhibition of STAT3 phosphorylation in human PC-9 cells expressing EGFR L858R/T790M/C797S mutant at 0.01 to 1 uM by Western blot analysis; type: cell-based; conditions: dose 0.01-1 µM
Chain of Signal transducer and activator of transcription 3 (Homo sapiens) (P40763 whole entry): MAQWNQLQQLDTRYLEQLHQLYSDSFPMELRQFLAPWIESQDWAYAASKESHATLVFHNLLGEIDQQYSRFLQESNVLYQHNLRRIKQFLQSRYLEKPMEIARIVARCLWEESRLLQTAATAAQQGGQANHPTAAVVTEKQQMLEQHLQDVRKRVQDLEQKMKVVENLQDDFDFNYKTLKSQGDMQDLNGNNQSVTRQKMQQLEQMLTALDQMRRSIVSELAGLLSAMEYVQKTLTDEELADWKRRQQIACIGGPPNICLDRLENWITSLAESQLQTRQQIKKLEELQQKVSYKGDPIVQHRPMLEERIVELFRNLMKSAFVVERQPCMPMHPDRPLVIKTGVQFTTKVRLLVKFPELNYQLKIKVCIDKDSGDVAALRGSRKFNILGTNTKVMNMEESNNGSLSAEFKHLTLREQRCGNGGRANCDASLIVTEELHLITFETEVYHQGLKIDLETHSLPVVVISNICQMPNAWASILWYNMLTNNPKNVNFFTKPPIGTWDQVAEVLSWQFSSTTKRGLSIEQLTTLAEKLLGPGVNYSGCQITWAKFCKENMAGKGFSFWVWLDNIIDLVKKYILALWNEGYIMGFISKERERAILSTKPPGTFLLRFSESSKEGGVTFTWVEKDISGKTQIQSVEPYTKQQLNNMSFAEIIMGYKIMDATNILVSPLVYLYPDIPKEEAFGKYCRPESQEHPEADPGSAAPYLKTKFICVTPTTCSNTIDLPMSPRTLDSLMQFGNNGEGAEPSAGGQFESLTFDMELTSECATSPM

[21] = system: PC-9; experiment: Antitumor activity against human PC-9 cells expressing EGFR L858R/T790M/C797S mutant xenografted in po dosed BALB/c nude mouse assessed as inhibition of tumor growth measured every other day for 18 days by digital vernier caliper analysis; type: functional, organism-based; conditions: dose 10-40 mg/kg, time 18.0 day, DDE = dose-dependent effect
[22] = system: Epidermal growth factor receptor (Homo sapiens), P00533 [L858R,T790M,C797S]; experiment: Inhibition of EGFR phosphorylation in human PC-9 cells expressing EGFR L858R/T790M/C797S mutant at 0.01 to 1 uM by Western blot analysis; type: cell-based; conditions: dose 0.01-1 µM
[23] = MRT (0 to infinity) in overnight fasted Sprague-Dawley rat at 20 mg/kg, po by HPLC analysis; type: ADME, organism-based; conditions: in vivo
[24] = system: PC-9; experiment: Induction of apoptosis in human PC-9 cells expressing EGFR L858R/T790M/C797S mutant assessed as viable cells at 0.01 uM incubated for 24 hrs by annexin-V/propidium iodide staining-based flow cytometry analysis (reference value: 99.1 %); type: functional; conditions: read-out: Activity
[25] = system: PC-9; experiment: Cell cycle arrest in human PC-9 cells expressing EGFR L858R/T790M/C797S mutant assessed as increase in accumulation of cells at G0/G1 phase at 0.01 to 1 uM incubated for 24 hrs by RNase/PI staining based flow cytometry analysis; type: functional; conditions: dose 0.01-1 µM
[26] = AUC(0 to infinity) in overnight fasted Sprague-Dawley rat at 20 mg/kg, po by HPLC analysis; type: ADME, organism-based; set-up: time infinity, dose 20 mg/kg, route po; conditions: in vivo
[27] = system: PC-9; experiment: Induction of apoptosis in human PC-9 cells expressing EGFR L858R/T790M/C797S mutant assessed as late apoptotic cells at 0.05 uM incubated for 24 hrs by annexin-V/propidium iodide staining-based flow cytometry analysis (reference value: 0.14 %); type: functional
[28] = Clearance in overnight fasted Sprague-Dawley rat at 20 mg/kg, iv by HPLC analysis; type: ADME, organism-based; conditions: in vivo
[29] = system: PC-9; experiment: Induction of apoptosis in human PC-9 cells expressing EGFR L858R/T790M/C797S mutant assessed as dead cells at 0.25 uM incubated for 24 hrs by annexin-V/propidium iodide staining-based flow cytometry analysis (reference value: 0.43 %); type: functional
[30] = Clearance in overnight fasted Sprague-Dawley rat at 20 mg/kg, po by HPLC analysis; type: ADME, organism-based; conditions: in vivo
[31] = Toxicity in BALB/c nude mouse xenografted with human PC-9 cells expressing EGFR L858R/T790M/C797S mutant assessed as body weight loss at 10 to 40 mg/kg, po measured every day for 18 days; type: organism-based; conditions: in vivo, 432 h, dose 10-40 mg/kg, time 18 day
[32] = system: PC-9; experiment: Antitumor activity against human PC-9 cells expressing EGFR L858R/T790M/C797S mutant xenografted in BALB/c nude mouse assessed as reduction in tumor weight at 10 to 40 mg/kg, po measured every day for 18 days by digital vernier caliper analysis; type: functional, organism-based; conditions: dose 10-40 mg/kg, time 18.0 day
[33] = Tmax in overnight fasted Sprague-Dawley rat at 20 mg/kg, po by HPLC analysis; type: ADME, organism-based; conditions: in vivo
[34] = AUC(0 to infinity) in overnight fasted Sprague-Dawley rat at 20 mg/kg, iv by HPLC analysis; type: ADME, organism-based; set-up: time infinity, dose 20 mg/kg, route iv; conditions: in vivo
[35] = Cmax in overnight fasted Sprague-Dawley rat at 20 mg/kg, iv by HPLC analysis; type: ADME, organism-based; set-up: dose 20 mg/kg, route iv; conditions: in vivo
[36] = system: PC-9; experiment: Induction of apoptosis in human PC-9 cells expressing EGFR L858R/T790M/C797S mutant assessed as late apoptotic cells at 0.25 uM incubated for 24 hrs by annexin-V/propidium iodide staining-based flow cytometry analysis (reference value: 0.14 %); type: functional
[37] = system: PC-9; experiment: Induction of apoptosis in human PC-9 cells expressing EGFR L858R/T790M/C797S mutant assessed as viable cells at 0.05 uM incubated for 24 hrs by annexin-V/propidium iodide staining-based flow cytometry analysis (reference value: 99.1 %); type: functional; conditions: read-out: Activity
[38] = system: PC-9; experiment: Antiproliferative activity against human PC-9 cells expressing EGFR L858R/T790M/C797S mutant assessed as inhibition of cell growth incubated for 72 hrs by CCK-8 assay; type: functional, cell-based; conditions: PC-9, 72 h
[39] = system: PC-9; experiment: Induction of apoptosis in human PC-9 cells expressing EGFR L858R/T790M/C797S mutant assessed as viable cells at 0.25 uM incubated for 24 hrs by annexin-V/propidium iodide staining-based flow cytometry analysis (reference value: 99.1 %); type: functional
[40] = Volume of distribution at steady state in overnight fasted Sprague-Dawley rat at 20 mg/kg, iv by HPLC analysis; type: ADME, organism-based; conditions: in vivo, read-out: Vdss

## CN1CCN(c2ccc(Nc3ncc4cc(CNc5ccccc5)n(C5CCCC5)c4n3)cc2)CC1
[1]
  MRT inf: 16.4 h
[2]
  IC50: 17 nM
[3]
  IC50: 2970 nM
[4]
  inhibition: Active
[5]
  Activity: 1.14%
[6]
  Activity: 1.21%
[7]
  bioavailability: 66%
[8]
  Vdss: 28.101 L/kg
[9]
  half-life: 11.2 h
[10]
  half-life: 8.92 h
[11]
  Tmax: 4.98 min
[12]
  inhibition: 90%
[13]
  inhibition: 83%
[14]
  Activity: 5.43%
[15]
  IC50: 1030 nM
[16]
  Activity: 1.11%
[17]
  Cmax: 770 ng/mL
[18]
  Activity: 6.8%
[19]
  Activity: 4.53%
[20]
  inhibition: Active
[21]
  Activity: Dde
[22]
  inhibition: Active
[23]
  MRT inf: 16.8 h
[24]
  viability at 0.01 µM: 93.1%
[25]
  Activity: Active
[26]
  AUC(0-inf): 10500 ng·h/mL
[27]
  Activity: 5.21%
[28]
  clearance: 21.2 mL/min/kg
[29]
  Activity: 7.03%
[30]
  CL/F: 35.9 mL/min/kg
[31]
  Activity: Non-Toxic
[32]
  Activity: Active
[33]
  Tmax: 6 h
[34]
  AUC(0-inf): 15900 ng·h/mL
[35]
  Cmax: 6840 ng/mL
[36]
  Activity: 10.7%
[37]
  viability at 0.05 µM: 88.2%
[38]
  IC50: 13 nM
[39]; Homo sapiens, PC-9, read-out: Activity
  viability at 0.25 µM: 75.4%
[40]
  Vd: 16 L/kg

## C=CC(=O)Nc1cc(Nc2nccc(-c3cn(C)c4ccccc34)n2)c(OC)cc1N(C)CCN(C)C [OSIMERTINIB]
[3]
  IC50: […]
[15]
  IC50: 784 nM
[18]
  Activity: 3.83%
[29]
  Activity: 1.1%
[36]
  Activity: 4.75%
[38]
  IC50: 3250 nM
[39]
  Activity: 90.3%
